Measurements reported in PMC12396409, “Screening and hit evaluation of a microbial metabolite library against the pathogenic Plasmodium falciparum and Toxoplasma gondii parasites” (International Journal for Parasitology: Drugs and Drug …, 2025).
Like-named read-outs stand apart in the source and are kept apart here.

Assays:
[1] = test system: P. falciparum 3D7 parasites; assay: P. falciparum growth inhibition assay, 1-cycle (72 h treatment), SYBR DNA staining (library screen at 2 μg/mL and dose-response); assay type: cell-based, Plasmodium falciparum; conditions: 72 h; for activity at 2 µg/mL: Plasmodium falciparum, 3D7
[2] = test system: P. falciparum 3D7 parasites; assay: P. falciparum growth inhibition assay, 2-cycle (120 h treatment), delayed-death screen and dose-response; assay type: cell-based, Plasmodium falciparum; conditions: 120 h; for activity at 2 µg/mL: Plasmodium falciparum, 3D7
[3] = test system: T. gondii RH strain (RH-Tub-eYFP) tachyzoites; assay: microbe, parasite or virus in culture; assay type: cell-based, Toxoplasma gondii; conditions: 72 h, 72 h; for percent parasite growth at 2 µg/mL: Toxoplasma gondii
[4] = P. falciparum, screen at 2 μg/mL, replicate 1
[5] = P. falciparum, screen at 2 μg/mL, replicate 2
[6] = T. gondii, screen at 2 μg/mL, replicate 1
[7] = T. gondii, screen at 2 μg/mL, replicate 2
[8] = library screen at 2 μg/mL, % growth, replicate 1
[9] = library screen at 2 μg/mL, % growth, replicate 2

Work on `COc1cc(C)c(C(=O)Oc2cc(C)c(C(=O)O)c(O)c2C)c(OC)c1C` [Diffractaic acid] yielded an activity at 2 µg/mL ([1]; library screen at 2 μg/mL, % growth, replicate 1, read-out: Pf_72h_%Growth_Rep1) of 80.1%, an activity at 2 µg/mL ([1]; library screen at 2 μg/mL, % growth, replicate 2, read-out: Pf_72h_%Growth_Rep2) of 79.9% and an activity at 2 µg/mL ([2]; library screen at 2 μg/mL, % growth, replicate 1, read-out: Pf_120h_%Growth_Rep1) of 91.2%. For the same compound, the activity at 2 µg/mL ([2]; library screen at 2 μg/mL, % growth, replicate 2, read-out: Pf_120h_%Growth_Rep2) was 81.2%, the percent parasite growth at 2 µg/mL ([3]; library screen at 2 μg/mL, % growth, replicate 1, read-out: Tg_72h_%Growth_Rep1) was 133% and the percent parasite growth at 2 µg/mL ([3]; library screen at 2 μg/mL, % growth, replicate 2, read-out: Tg_72h_%Growth_Rep2) was 97.5%.
In the case of `CO[C@H]1/C=C\C=C(\C)C[C@H](C)[C@H](O)[C@H](C)/C=C(C)\C=C(\C)C(=O)O[C@@H]1[C@@H](C)[C@@H](O)[C@H](C)[C@@]1(O)C[C@@H](OC(=O)/C=C/C(=O)O)[C@H](C)[C@@H](C(C)C)O1` [TS 155-2], the Pf_72h_%Growth_Rep1 [1, 4] is reported as 3.32%, the Pf_72h_%Growth_Rep2 [1, 5] is reported as -2.51% and the Pf_120h_%Growth_Rep1 [2, 4] is reported as 23.01%. It also gave a Pf_120h_%Growth_Rep2 [2, 5] of 6.11%, a Tg_72h_%Growth_Rep1 [3, 6] of 1.68% and a Tg_72h_%Growth_Rep2 [3, 7] of -0.35%.
`CC(C)C[C@@H]1NC(=O)[C@@H]2CCCN2C1=O` [Cyclo(L-Leu-L-Pro)] gave a Pf_72h_%Growth_Rep1 [1, 4] of 83.89%, a Pf_72h_%Growth_Rep2 [1, 5] of 81.36% and a Pf_120h_%Growth_Rep1 [2, 4] of 82.10%. For the same compound, the Pf_120h_%Growth_Rep2 [2, 5] was 83.93%, the Tg_72h_%Growth_Rep1 [3, 6] was 124.64% and the Tg_72h_%Growth_Rep2 [3, 7] was 91.02%.
`CCC/C=C/C=C/C1C[C@@H](O)[C@@H](O)C(=O)[C@H]1C=O` (stereo partly drawn) [Frequentin] showed a Pf_72h_%Growth_Rep1 [1, 8] of 84.65%, a Pf_72h_%Growth_Rep2 [1, 9] of 84.20% and a Pf_120h_%Growth_Rep1 [2, 8] of 99.31%. For the same compound, the Pf_120h_%Growth_Rep2 [2, 9] was 94.53%, the Tg_72h_%Growth_Rep1 [3, 8] was 198.87% and the Tg_72h_%Growth_Rep2 [3, 9] was 96.89%.
With `CC1=C[C@H]2C(=O)O[C@H]3C[C@@H](C/C=C(/C)[C@@H](O)[C@@H](C)/C=C\C=C4CO[C@H]([C@@H]1O)[C@@]42O)O[C@@]1(C=C[C@H](C)[C@@H](C2CCCCC2)O1)C3` [Doramectin aglycone] the Pf_72h_%Growth_Rep1 [1, 8] was 80.09%, the Pf_72h_%Growth_Rep2 [1, 9] was 78.66% and the Pf_120h_%Growth_Rep1 [2, 8] was 86.97%. The Pf_120h_%Growth_Rep2 [2, 9] was 81.83%, the Tg_72h_%Growth_Rep1 [3, 8] was 167.81% and the Tg_72h_%Growth_Rep2 [3, 9] was 107.39%.
`CC[C@H]1OC(=O)[C@H](C)[C@@H](O[C@H]2C[C@@](C)(OC)[C@@H](O)[C@H](C)O2)[C@H](C)[C@@H](O[C@@H]2O[C@H](C)C[C@H](N(C)C)[C@H]2O)[C@](C)(OC)C[C@@H](C)C(=O)[C@H](C)[C@@H](O)[C@]1(C)O` [Clarithromycin] showed an activity at 2 µg/mL ([1]; P. falciparum, screen at 2 μg/mL, replicate 1, read-out: Pf_72h_%Growth_Rep1) of 74.8%, an activity at 2 µg/mL ([1]; P. falciparum, screen at 2 μg/mL, replicate 2, read-out: Pf_72h_%Growth_Rep2) of 62.6% and an activity at 2 µg/mL ([2]; P. falciparum, screen at 2 μg/mL, replicate 1, read-out: Pf_120h_%Growth_Rep1) of 31.2%. It also gave an activity at 2 µg/mL ([2]; P. falciparum, screen at 2 μg/mL, replicate 2, read-out: Pf_120h_%Growth_Rep2) of 16.9%, a percent parasite growth at 2 µg/mL ([3]; T. gondii, screen at 2 μg/mL, replicate 1, read-out: Tg_72h_%Growth_Rep1) of 40.9% and a percent parasite growth at 2 µg/mL ([3]; T. gondii, screen at 2 μg/mL, replicate 2, read-out: Tg_72h_%Growth_Rep2) of 40.8%.
`CC(C)CCCCCC=CCC(=O)N[C@@H](CC(=O)O)C(=O)N[C@@H]1C(=O)N2CCCC[C@@H]2C(=O)N[C@@H](C(C)C(=O)O)C(=O)N[C@@H](CC(=O)O)C(=O)NCC(=O)N[C@@H](CC(=O)O)C(=O)NCC(=O)N[C@H](C(C)N)C(=O)N[C@@H](C(C)C)C(=O)N2CCC[C@H]2C(=O)NC1C` (stereo partly drawn) [Aspartocin D] gave a Pf_72h_%Growth_Rep1 [1, 8] of 103.30%, a Pf_72h_%Growth_Rep2 [1, 9] of 89.43% and a Pf_120h_%Growth_Rep1 [2, 8] of 152.69%. The Pf_120h_%Growth_Rep2 [2, 9] was 104.90%, the Tg_72h_%Growth_Rep1 [3, 8] was 85.89% and the Tg_72h_%Growth_Rep2 [3, 9] was 91.61%.
Compound `CO[C@H]1C[C@H](O[C@H]2[C@H](C)O[C@@H](O[C@@H]3/C(C)=C/C[C@@H]4C[C@@H](C[C@]5(C=C[C@H](C)[C@@H](C6CCCCC6)O5)O4)OC(=O)[C@@H]4C=C(C)[C@@H](O)[C@H]5OC/C(=C\C=C\[C@@H]3C)[C@]54O)C[C@@H]2OC)O[C@@H](C)[C@@H]1O` [Doramectin] has a Pf_72h_%Growth_Rep1 [1, 8] of 86.87%, a Pf_72h_%Growth_Rep2 [1, 9] of 79.49% and a Pf_120h_%Growth_Rep1 [2, 8] of 100.88%. It also gave a Pf_120h_%Growth_Rep2 [2, 9] of 96.33%, a Tg_72h_%Growth_Rep1 [3, 8] of 127.97% and a Tg_72h_%Growth_Rep2 [3, 9] of 102.84%.
Amphomycin showed a Pf_72h_%Growth_Rep1 [1, 8] of 83.34%, a Pf_72h_%Growth_Rep2 [1, 9] of 87.67% and a Pf_120h_%Growth_Rep1 [2, 8] of 117.00%. For the same compound, the Pf_120h_%Growth_Rep2 [2, 9] was 80.15%, the Tg_72h_%Growth_Rep1 [3, 8] was 94.79% and the Tg_72h_%Growth_Rep2 [3, 9] was 89.38%.
